According to article PMC12596218 (Journal of Lipid Research, 2025):
pIC50: −log10 of the molar value. Where two headings read alike, the source gives them in different places. Blank lines part the entries; values can stand above or below the compound they belong to.

Key:
ASBT = target: T1, ASBT (Homo sapiens, UniProt Q12908); assay: Transport inhibition and recovery assay (inhibitor washout) in ASBT-HEK293 cells; type: cell-based; conditions: 3 μM inhibitor 5 min; for ASBT inhibition pattern after inhibitor washout and inhibitor-free incubation: recovery time up to 240 min
T1 construct: stably transfected with the full open reading frames of human NTCP, ASBT, SOAT, OATP1B1, OATP1B3, OATP2B1, and murine Asbt (mAsbt); expressed in transfected cells; host or cells: HEK293 (Flp-In), stably transfected, tetracycline-induced
T1 sequence (Q12908 1-348): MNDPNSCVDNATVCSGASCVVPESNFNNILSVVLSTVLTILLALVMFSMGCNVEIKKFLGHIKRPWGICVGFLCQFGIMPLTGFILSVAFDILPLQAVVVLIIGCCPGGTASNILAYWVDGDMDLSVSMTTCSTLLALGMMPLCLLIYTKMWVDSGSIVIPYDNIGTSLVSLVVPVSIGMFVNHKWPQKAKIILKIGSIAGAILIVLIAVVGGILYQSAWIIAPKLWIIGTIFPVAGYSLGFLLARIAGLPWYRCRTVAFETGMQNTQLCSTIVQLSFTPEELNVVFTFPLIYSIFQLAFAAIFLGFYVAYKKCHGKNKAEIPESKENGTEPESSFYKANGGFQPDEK
Procedure: HEK293 cells stably expressing ASBT were seeded onto poly-L-lysine-coated 96-well plates, induced with 1 μg/ml tetracycline, and grown to confluence over 72 h at 37°C. Non-carrier-expressing HEK293 cells were used as control. Then, cells were washed with tempered (37°C) PBS and equilibrated for 5 min with STB. […] After inhibitor preincubation, cells were washed with tempered (37°C) PBS and further incubated in inhibitor-free DMEM (Thermo Fisher Scientific) for 30, 60, 120, or 240 min at 37°C. […] Finally, cell associated radioactivity was determined using the MicroBeta2 liquid scintillation counter (Revvity). For each inhibitor, the mean values from noncarrier-expressing HEK293 cells were set to 0% and transport measurements in the absence of inhibitor (solvent control) were set to 100%.
In the second setup, the inhibitor was thoroughly washed out after the preincubation phase and cells were placed on inhibitor-free medium for different time intervals of 0–240 min (indicated by “recovery time” in Fig. 7A).

OATP1B1 = conditions: cited from earlier work; for pIC50: read-out: IC50 OATP1B1 inhibition

SMILES: CCCCC1(CCCC)CN(c2ccccc2)c2cc(SC)c(OCC(=O)N[C@@H](C(=O)NCC(=O)O)c3ccccc3)cc2S(=O)(=O)C1 [elobixibat]
pIC50 (OATP1B1; in vitro studies, ref PMDA Goofice Report on the Deliberation Results): 6.59
ASBT inhibition pattern after inhibitor washout and inhibitor-free incubation (ASBT): intermediate inhibition pattern

SMILES: CCCC[C@]1(CC)CS(=O)(=O)c2cc(CNC(CC(=O)O)CC(=O)O)c(OC)cc2[C@@H](c2ccccc2)N1 [linerixibat]
Substrate of OATP1B1 (OATP1B1): is a substrate
pIC50 (OATP1B1; ref 65 Zamek-Gliszczynski et al. (2021)): 5.57
ASBT transport activity recovered directly after inhibitor washout (ASBT; 0 min recovery): about 37%
ASBT recovery after washout and 30 min in inhibitor-free medium (ASBT; 30 min recovery): mostly recovered ASBT
ASBT inhibition pattern after inhibitor washout and inhibitor-free incubation (ASBT): quick and full recovery

Continued, in another order:

ASBT inhibition pattern after inhibitor washout and inhibitor-free incubation (ASBT): intermediate inhibition pattern
SMILES: CCCCC1(CCCC)CS(=O)(=O)c2ccc(N(C)C)cc2[C@@H](c2ccc(OCCCC[N+]34CCN(CC3)CC4)cc2)[C@H]1O [SC-435]

ASBT inhibition pattern after inhibitor washout and inhibitor-free incubation (ASBT): retained full ASBT uptake inhibition
SMILES: CCCCC1(CCCC)CS(=O)(=O)c2ccc(N(C)C)cc2[C@@H](c2ccc(OCc3ccc(C[N+]45CCN(CC4)CC5)cc3)cc2)[C@H]1O [maralixibat]
OATP1B1 inhibition (in words) (OATP1B1; in vitro, ref FDA NDA 214662 Livmarli): In vitro, maralixibat did not inhibit the transporters OATP1B1 and OATP1B3.

ASBT inhibition pattern after inhibitor washout and inhibitor-free incubation (ASBT): retained full ASBT uptake inhibition
SMILES: CCCCC1(CCCC)CN(c2ccccc2)c2cc(SC)c(OCC(=O)N[C@@H](C(=O)N[C@@H](CC)C(=O)O)c3ccc(O)cc3)cc2S(=O)(=O)N1 [odevixibat]
pIC50 (OATP1B1; in vitro studies, ref FDA NDA 215498 BYLVAY): 6.51
OATP1B1 inhibition (in words) (OATP1B1; ref EMA EPAR Product Information Bylvay): Odevixibat does not inhibit OATP1B1 and OATP1B3.
